A word on the IC50: it is the concentration needed to halve the response being measured. Broadly, the EC50 is the concentration needed to bring the measured effect to its halfway point.

In patent US20130109682A1, “CYCLIC ETHER COMPOUNDS USEFUL AS KINASE INHIBITORS” (NOVARTIS AG, priority 2010, published 2013) one finds IC50 and EC50 data, which are given here for 14 compounds.

One assay addresses GSK3β (Homo sapiens, UniProt P49841). The assay is described as follows: GSK3β ATP depletion assay. As to conditions: read-out: GSK3b IC50. In kind it is biochemical. The procedure, abridged:
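Human GSK3β (5 nM) preincubated 15 min with 10 μM biotinylated phospho-CREB peptide in pH 7.5 Tris buffer (15 mM MgCl2, 1 mM DTT, 0.1% BSA, 2.5% DMSO). Reaction started with 2 μM ATP and run to about 50% ATP depletion. Remaining ATP measured by KinaseGlo luminescence.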

In the next assay the target is PIM3 (Homo sapiens, UniProt Q86V86). Description: KinaseGlo Pim3 ATP depletion assay. In kind it is biochemical. In outline: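 Kinase was preincubated 15 min with BAD peptide in HEPES pH 7.5/MgCl2/DTT/BSA before ATP was added. Final concentrations were 40 μM ATP, 100 μM BAD peptide and 2.5% DMSO, with 5 nM enzyme. The reaction ran to ~50% ATP depletion and remaining ATP was read by KinaseGlo Plus luminescence.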

The target in another assay is PIM1 (Homo sapiens, UniProt P11309). The assay is described as follows: KinaseGlo Pim1 ATP depletion assay. In kind it is biochemical. In outline: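 2.5 nM PIM1 preincubated 15 min with compound and 40 μM BAD peptide in 50 mM HEPES pH 7.5, 5 mM MgCl2, 1 mM DTT, 0.05% BSA, 2.5% DMSO. The reaction was started with 20 μM ATP (final) and run to about 50% ATP depletion. Remaining ATP read by KinaseGlo Plus luminescence to give IC50.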
Sequence of PIM1 (P11309 whole entry): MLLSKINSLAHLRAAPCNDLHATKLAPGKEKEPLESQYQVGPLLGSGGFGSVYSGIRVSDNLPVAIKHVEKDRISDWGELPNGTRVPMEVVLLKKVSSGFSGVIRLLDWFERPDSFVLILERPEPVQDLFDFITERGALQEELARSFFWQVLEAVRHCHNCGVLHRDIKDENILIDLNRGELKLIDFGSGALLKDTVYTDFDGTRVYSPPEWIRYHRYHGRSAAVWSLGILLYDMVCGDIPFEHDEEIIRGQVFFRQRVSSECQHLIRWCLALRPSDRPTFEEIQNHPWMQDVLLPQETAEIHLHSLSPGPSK

The test system of assay [1] is KMS11 (human myeloma cell line). Description: Cell proliferation assay (CellTiter-Glo), KMS11. As to conditions: Homo sapiens, KMS-11; KMS11-Luc cells. In kind it is cell-based. The procedure, abridged: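 KMS11 cells in IMDM with 10% FBS and sodium pyruvate, seeded at 2000 cells/well on assay day. Compound added at 2× to equal volume of cells, incubated 3 days at 37° C. Viability read by CellTiter-Glo luminescence; EC50 derived.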

The next assay has as its target PIM2 (Homo sapiens, UniProt Q9P1W9). Description: KinaseGlo Pim2 ATP depletion assay. In kind it is biochemical. The procedure, abridged:
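Luminescent ATP-depletion read-out of PIM2 phosphorylating BAD peptide (RSRHSSYPAGT-OH). Final conditions: 5 nM PIM2, 4 μM ATP, 10 μM peptide, 2.5% DMSO in 50 mM HEPES pH 7.5, 5 mM MgCl2, 1 mM DTT, 0.05% BSA. Enzyme–peptide preincubated 15 min with compound; reaction run to ~50% ATP depletion.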
Background: In Kinase-Glo more light means more ATP remaining.

Sequence of GSK3β (P49841 whole entry, species assumed): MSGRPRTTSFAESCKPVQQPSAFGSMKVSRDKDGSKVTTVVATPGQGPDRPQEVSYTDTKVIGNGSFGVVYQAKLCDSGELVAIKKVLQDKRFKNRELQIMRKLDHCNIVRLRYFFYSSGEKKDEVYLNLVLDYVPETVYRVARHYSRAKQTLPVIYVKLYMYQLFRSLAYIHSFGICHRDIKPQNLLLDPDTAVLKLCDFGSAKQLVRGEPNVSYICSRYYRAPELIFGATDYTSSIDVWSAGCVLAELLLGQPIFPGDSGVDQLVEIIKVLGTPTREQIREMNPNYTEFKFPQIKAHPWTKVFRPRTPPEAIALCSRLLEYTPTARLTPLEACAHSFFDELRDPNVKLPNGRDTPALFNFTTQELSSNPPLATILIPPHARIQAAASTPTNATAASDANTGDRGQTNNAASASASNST
Sequence of PIM2 (Q9P1W9 whole entry): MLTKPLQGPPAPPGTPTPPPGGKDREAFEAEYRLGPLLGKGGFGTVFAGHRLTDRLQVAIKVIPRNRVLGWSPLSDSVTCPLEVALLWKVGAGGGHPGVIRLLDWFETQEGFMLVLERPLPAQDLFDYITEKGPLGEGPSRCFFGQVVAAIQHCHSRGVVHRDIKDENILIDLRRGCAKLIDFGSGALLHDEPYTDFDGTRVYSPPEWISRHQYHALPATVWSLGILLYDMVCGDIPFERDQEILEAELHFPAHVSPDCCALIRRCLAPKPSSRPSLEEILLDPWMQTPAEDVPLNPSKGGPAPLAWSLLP

Turning to `CC[C@H]1O[C@@H](c2ccncc2NC(=O)c2csc(-c3c(F)cccc3F)n2)C[C@@H](O)[C@@H]1O` [Example 41, 2-(2,6-difluorophenyl)-N-(4-((2R,4R,5S,6R)-6-ethyl-4,5-dihydroxytetrahydro-2H-pyran-2-yl)pyridin-3-yl)thiazole-4-carboxamide], the IC50 on GSK3β amounted to 17 nM; on PIM3, 7 nM; against PIM1 it was 1 nM; against PIM2, 65 nM. In assay [1], this compound registered an EC50 of 9900 nM.

For the compound `CC[C@H]1O[C@@H](c2ccncc2NC(=O)c2nc(-c3ccccc3F)c(F)cc2N)C[C@@H](O)[C@@H]1O` [Example 42, 3-amino-N-(4-((2R,4R,5S,6R)-6-ethyl-4,5-dihydroxytetrahydro-2H-pyran-2-yl)pyridin-3-yl)-5-fluoro-6-(2-fluorophenyl)picolinamide], the IC50 is 23 nM on GSK3β, 1 nM at PIM3, 1 nM against PIM1 and 3 nM against PIM2. Further, in assay [1], a half-maximal effect (EC50) was put at 9600 nM.

In the case of `CC[C@H]1O[C@@H](c2ccncc2NC(=O)c2nc(-c3c(F)cccc3F)c(F)cc2N)C[C@@H](O)[C@@H]1O` [Example 43, 3-amino-6-(2,6-difluorophenyl)-N-(4-((2R,4R,5S,6R)-6-ethyl-4,5-dihydroxytetrahydro-2H-pyran-2-yl)pyridin-3-yl)-5-fluoropicolinamide], the IC50 at GSK3β worked out at 188 nM; against PIM3 it was 1 nM; on PIM1 it was 1 nM; at PIM2 it was 1 nM. Moreover, it took 1700 nM to reach a half-maximal effect in assay [1] (EC50).

With `C=C[C@H]1OC(c2ccncc2NC(=O)c2ccc(F)c(-c3c(F)cccc3F)n2)=C[C@@H](O)[C@@H]1O` [Example 44, 6-(2,6-difluorophenyl)-N-(4-((2R,3S,4R)-3,4-dihydroxy-2-vinyl-3,4-dihydro-2H-pyran-6-yl)pyridin-3-yl)-5-fluoropicolinamide], the IC50 at GSK3β amounted to 339 nM; at PIM3 it was 1 nM; against PIM1, 1 nM; at PIM2 it was 1 nM. In assay [1], this compound displayed an EC50 of 900 nM.

In the case of `N#CC[C@H]1O[C@@H](c2ccncc2NC(=O)c2ccc(F)c(-c3c(F)cccc3F)n2)CC[C@@H]1O` [Example 46, N-(4-((2R,5S,6R)-6-(cyanomethyl)-5-hydroxytetrahydro-2H-pyran-2-yl)pyridin-3-yl)-6-(2,6-difluorophenyl)-5-fluoropicolinamide], the IC50 was determined as 442 nM at GSK3β, 33 nM on PIM3, 7 nM against PIM1 and 149 nM against PIM2. In assay [1], this compound gave an EC50 of more than 10000 nM.

As to `N#CC[C@H]1O[C@@H](c2ccncc2NC(=O)c2ccc(C#N)c(-c3c(F)cccc3F)n2)C[C@@H](O)[C@@H]1O` [Example 47, 5-cyano-N-(4-((2R,4R,5S,6R)-6-(cyanomethyl)-4,5-dihydroxytetrahydro-2H-pyran-2-yl)pyridin-3-yl)-6-(2,6-difluorophenyl)picolinamide], the IC50 on GSK3β is 9180 nM; on PIM3, 113 nM; at PIM1 it was 58 nM; against PIM2, 356 nM. The same compound displayed an EC50 in assay [1] of more than 10000 nM.

Turning to `O=C(Nc1cnccc1[C@H]1C[C@H](Cl)[C@H](O)[C@@H](CCl)O1)c1ccc(F)c(-c2c(F)cccc2F)n1` [Example 55, N-(4-((2R,4S,5R,6S)-4-chloro-6-(chloromethyl)-5-hydroxytetrahydro-2H-pyran-2-yl)pyridin-3-yl)-6-(2,6-difluorophenyl)-5-fluoropicolinamide], the IC50 came out at 911 nM on GSK3β, 26 nM at PIM3, 2 nM against PIM1 and 101 nM against PIM2. The compound also returned an EC50 in assay [1] of 5500 nM.

For `COC[C@H]1O[C@@H](c2ccncc2NC(=O)c2ccc(F)c(-c3c(F)cccc3F)n2)C[C@@H](O)[C@@H]1O` [Example 57, 6-(2,6-difluorophenyl)-N-(4-((2R,4R,5S,6R)-4,5-dihydroxy-6-(methoxymethyl)tetrahydro-2H-pyran-2-yl)pyridin-3-yl)-5-fluoropicolinamide], the IC50 on GSK3β was 2000 nM; against PIM3 it was 28 nM; on PIM1, 19 nM; against PIM2, 111 nM. The compound also gave an EC50 in assay [1] of 6100 nM.

With `O=C(Nc1cnccc1[C@H]1C[C@@H](O)CC2(CC2)O1)c1ccc(F)c(-c2c(F)cccc2F)n1` [Example 59, 6-(2,6-difluorophenyl)-5-fluoro-N-(4-((5R,7R)-7-hydroxy-4-oxaspiro[2.5]octan-5-yl)pyridin-3-yl)picolinamide], the IC50 on GSK3β amounted to 757 nM; at PIM3, 14 nM; at PIM1 it was 6 nM; against PIM2, 162 nM. The compound further gave an EC50 in assay [1] of more than 10000 nM.

As for `O=C(Nc1cnccc1[C@H]1C[C@@H](O)CC2(CC2)O1)c1csc(-c2c(F)cccc2F)n1` [Example 61, 2-(2,6-difluorophenyl)-N-(4-((5R,7R)-7-hydroxy-4-oxaspiro[2.5]octan-5-yl)pyridin-3-yl)thiazole-4-carboxamide], the IC50 came out at 65 nM on GSK3β, 20 nM against PIM3, 7 nM against PIM1 and 599 nM against PIM2. Besides, the EC50 in assay [1] is more than 10000 nM.

Consider `O=C(Nc1cnccc1[C@@H]1C[C@H](O)CC2(CC2)O1)c1csc(-c2c(F)cccc2F)n1` [Example 62, 2-(2,6-difluorophenyl)-N-(4-((5S,7S)-7-hydroxy-4-oxaspiro[2.5]octan-5-yl)pyridin-3-yl)thiazole-4-carboxamide], for which the IC50 on GSK3β turned out to be 27 nM; against PIM3 it was 15 nM; against PIM1, 2 nM; on PIM2, 321 nM. The EC50 in assay [1] was more than 10000 nM.

`C[C@H]1O[C@@H](c2ccncc2NC(=O)c2ccc(F)c(-c3c(F)cccc3F)n2)[C@H](F)C(=O)[C@]1(C)O` [Example 72, 6-(2,6-difluorophenyl)-5-fluoro-N-(4-((2S,3S,5R,6R)-3-fluoro-5-hydroxy-5,6-dimethyl-4-oxotetrahydro-2H-pyran-2-yl)pyridin-3-yl)picolinamide]: the IC50 on GSK3β stood at 385 nM; against PIM3, 6 nM; against PIM1 it was 1 nM; on PIM2 it was 15 nM. The EC50 in assay [1] was 1500 nM.

As to `CC[C@@]1(O)[C@H](C)O[C@H](c2ccncc2NC(=O)c2ccc(F)c(-c3c(F)cccc3F)n2)C[C@@H]1O` [Example 73, 6-(2,6-difluorophenyl)-N-(4-((2S,4S,5S,6S)-5-ethyl-4,5-dihydroxy-6-methyltetrahydro-2H-pyran-2-yl)pyridin-3-yl)-5-fluoropicolinamide], the IC50 at GSK3β worked out at 3230 nM; on PIM3 it was 200 nM; at PIM1 it was 10 nM; against PIM2, 1110 nM. Besides, the EC50 in assay [1] was more than 10000 nM.

In the case of `CC[C@H]1O[C@@H](c2ccncc2NC(=O)c2ccc(F)c(-c3c(F)cccc3F)n2)C[C@@H](O)[C@@H]1O` [Example 75, 6-(2,6-difluorophenyl)-N-(4-((2R,4R,5S,6R)-6-ethyl-4,5-dihydroxytetrahydro-2H-pyran-2-yl)pyridin-3-yl)-5-fluoropicolinamide], the IC50 came to 228 nM on GSK3β, 2 nM against PIM3, 1 nM against PIM1 and 4 nM against PIM2. In assay [1], the EC50 was 2200 nM.
